Reference: PubChem BioAssay AID1963833 (Molecular Pharmacology Branch, DTP, NCI, 2024)

Tested on: 883617-216-R-J1-PDC complex spheroid viability
Assay: Anticancer human tumor 883617-216-R-J1-PDC patient-derived bladder carcinoma cell line growth inhibition [POLQ]
Settings: for IC50: curve of first compound; for viability, T/C: stronger effect = lower value
Protocol: Multicellular complex tumor spheroid response to Polymerase (POL) inhibitors (novobiocin, ART-558, RP6685) in combination with a variety of drugs and investigational agents in selected tumor cell lines
The POL inhibitors (novobiocin, ART-558, and RP6685) were evaluated both individually and in combination with standard of care and investigational anticancer small molecules within a complex spheroid model of solid tumors. . Complex spheroids include a stromal component modeled by human endothelial cells (HUVEC) and fibroblasts modeled by human mesenchymal stem cells (MSCs). The concentration ranges selected for each drug and investigational agent were based upon clinically achievable concentrations if the clinical Cmax of the agent was known.
Compounds. The drugs and investigational agents: novobiocin (NSC847541), ART-558 (NSC835418), RP-6685 (NSC848927), peposertib (NSC802822), ceralasertib (NSC780249), elimusertib (NSC800525), camonsertib (NSC841442), AZD-1390 (NSC803789), olaparib (NSC753686), talazoparib (NSC767125), rucaparib (NSC756644), sotorasib (NSC818433), MRTX-1133 (NSC836407), SN-38 (NSC673596), topotecan (NSC609699), epotoside (NSC141540), doxorubicin (NSC123127), gemcitabine (NSC613327), 5-fluorouracil (NSC19893), paclitaxel (NSC125973), vemurafenib (NSC761431), MSA-2 (NSC828583), SN-011 (NSC837082), adavosertib (NSC754352), prexasertib (NSC758257), carboplatin (NSC241240) and oxaliplatin (NSC266046), were obtained from the National Cancer Institute (NCI) Developmental Therapeutics Program Chemical Repository (21). The FDA-approved anticancer drug set is available from the Developmental Therapeutics Program at https://dtp.cancer.gov/organization/dscb/obtaining/. […] The stock solutions were prepared in dimethyl sulfoxide (DMSO, Sigma-Aldrich, St. Louis, MO, cat. D2650), except for the platinum compounds which were prepared in saline (Quality Biological, Gaithersburg, MD, cat. 114-055-101), at 800-fold the tested concentration and stored at -70 degrees C prior to their use. All drugs and investigational agents were tested over a range starting from a high concentration at or near the clinical Cmax and decreasing in half-log increments. If the clinical Cmax for an agent had not been determined, the highest concentration tested was 10 microM, except for SN-38, which was tested at a high concentration of 1 microM.
Cell Culture. All cells were maintained in an incubator at 37 degrees C and 5% CO2 with 95% humidity. The PDC lines were cultured according to standard operating procedures established by the NCI PDMR (https://pdmr.cancer.gov). Table 3 of the manuscript, lists the cell lines along with the number of the three cell types plated to form the mct-spheroids and media for tumor cell growth. After thawing, all PDC lines, except 997537-175-T-J1-PDC and 415267-285-R-J2-PDC, were cultured in Matrigel-coated flasks prepared with a working solution of 1X Ham's F-12 nutrient mix, without supplementation (Thermo Fisher Scientific, cat. 11765054), 100 U/mL penicillin-streptomycin (Thermo Fisher Scientific, cat. 15140122), and 2.5% Matrigel (Corning Inc., Corning, NY, cat. 354248) for the first three passages. The two PDC lines 997537-175-T-J1-PDC and 415267-285-R-J2-PDC were cultured on uncoated flasks. The 857933-349-R-J2-PDC line was cultured in 6C/Colon 1B media containing advanced DMEM/F-12 (Thermo Fisher Scientific, cat. 12634028), 10 mM HEPES (Thermo Fisher Scientific, cat. 15630080), 1X GlutaMAX supplement (Thermo Fisher Scientific, cat. 35050061), 0.1 mg/mL primocin (InvivoGen, San Diego, CA, cat. ant-pm-2), 10% defined fetal bovine serum, heat inactivated (HyClone Laboratories Inc., Logan, UT, cat. SH30070.03HI), 50% L-WRN conditioned media (ATCC, cat. CRL-3276), 1.25 mM N-Acetyl-L-cysteine (Sigma-Aldrich, cat. A9165), 10 mM nicotinamide (Sigma-Aldrich, cat. N0636), 1X B-27 supplement (Thermo Fisher Scientific, cat. 17504044), 1X N-2 supplement (Thermo Fisher Scientific, cat. […]

[1] = second compound 0.0316 µM, first compound 0.0316 µM
[2] = second compound 0.0316 µM, first compound 0.1 µM
[3] = second compound 0.0316 µM, first compound 0.316 µM
[4] = second compound 0.0316 µM, first compound 1 µM
[5] = second compound 0.0316 µM, first compound 3.16 µM
[6] = second compound 0.0316 µM, first compound 10 µM
[7] = second compound 0.1 µM, first compound 0.0316 µM
[8] = second compound 0.1 µM, first compound 0.1 µM
[9] = second compound 0.1 µM, first compound 0.316 µM
[10] = second compound 0.1 µM, first compound 1 µM
[11] = second compound 0.1 µM, first compound 3.16 µM
[12] = second compound 0.1 µM, first compound 10 µM
[13] = second compound 0.316 µM, first compound 0.0316 µM
[14] = second compound 0.316 µM, first compound 0.1 µM
[15] = second compound 0.316 µM, first compound 0.316 µM
[16] = second compound 0.316 µM, first compound 1 µM
[17] = second compound 0.316 µM, first compound 3.16 µM
[18] = second compound 0.316 µM, first compound 10 µM
[19] = second compound 1 µM, first compound 0.0316 µM
[20] = second compound 1 µM, first compound 0.1 µM
[21] = second compound 1 µM, first compound 0.316 µM
[22] = second compound 1 µM, first compound 1 µM
[23] = second compound 1 µM, first compound 3.16 µM
[24] = second compound 1 µM, first compound 10 µM
[25] = second compound 3.16 µM, first compound 0.0316 µM
[26] = second compound 3.16 µM, first compound 0.1 µM
[27] = second compound 3.16 µM, first compound 0.316 µM
[28] = second compound 3.16 µM, first compound 1 µM
[29] = second compound 3.16 µM, first compound 3.16 µM
[30] = second compound 3.16 µM, first compound 10 µM
[31] = second compound 10 µM, first compound 0.0316 µM
[32] = second compound 10 µM, first compound 0.1 µM
[33] = second compound 10 µM, first compound 0.316 µM
[34] = second compound 10 µM, first compound 1 µM
[35] = second compound 10 µM, first compound 3.16 µM
[36] = second compound 10 µM, first compound 10 µM
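Further: spheroids exposed to compounds for seven days before readout.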
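Wherever viability, T/C is given: 100% = DMSO vehicle control viability.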

C=CC(=O)N1CCN(c2nc(=O)n(-c3c(C)ccnc3C(C)C)c3nc(-c4c(O)cccc4F)c(F)cc23)C(C)C1 (centres undefined) + COC1C(OC(N)=O)C(O)C(Oc2ccc3c(O)c(NC(=O)c4ccc(O)c(CC=C(C)C)c4)c(=O)oc3c2C)OC1(C)C
IC50 (second compound 0.0316 µM): > 10 µM | IC50 (second compound 0.1 µM): > 10 µM | IC50 (second compound 0.316 µM): > 10 µM | IC50 (second compound 1 µM): > 10 µM | IC50 (second compound 3.16 µM): > 10 µM | IC50 (second compound 10 µM): > 10 µM | viability, T/C [1]: 79.2% | viability, T/C [2]: 77.5% | viability, T/C [3]: 70.8% | viability, T/C [4]: 98.3% | viability, T/C [5]: 81.7% | viability, T/C [6]: 87.6% | viability, T/C [7]: 72.5% | viability, T/C [8]: 68.2% | viability, T/C [9]: 67.3% | viability, T/C [10]: 81.8% | viability, T/C [11]: 102% | viability, T/C [12]: 80.5% | viability, T/C [13]: 70.2% | viability, T/C [14]: 78.7% | viability, T/C [15]: 68.5% | viability, T/C [16]: 73.7% | viability, T/C [17]: 85.5% | viability, T/C [18]: 75.9% | viability, T/C [19]: 81.8% | viability, T/C [20]: 65.9% | viability, T/C [21]: 73.2% | viability, T/C [22]: 78.2% | viability, T/C [23]: 89.9% | viability, T/C [24]: 76.5% | viability, T/C [25]: 78.3% | viability, T/C [26]: 62.4% | viability, T/C [27]: 79.3% | viability, T/C [28]: 69.5% | viability, T/C [29]: 79% | viability, T/C [30]: 76.8% | viability, T/C [31]: 68% | viability, T/C [32]: 60.6% | viability, T/C [33]: 76.5% | viability, T/C [34]: 85.5% | viability, T/C [35]: 84.2% | viability, T/C [36]: 91.4%

CCc1cc2c(N3CCc4c(cc(Cn5ccnc5)cc4-c4cn(C)nc4C(F)(F)F)C3=O)cc(C)nc2c(OC)n1 + COC1C(OC(N)=O)C(O)C(Oc2ccc3c(O)c(NC(=O)c4ccc(O)c(CC=C(C)C)c4)c(=O)oc3c2C)OC1(C)C
IC50 (second compound 0.0316 µM): > 10 µM | IC50 (second compound 0.1 µM): 8.76 µM | IC50 (second compound 0.316 µM): 9.29 µM | IC50 (second compound 1 µM): > 10 µM | IC50 (second compound 3.16 µM): > 10 µM | IC50 (second compound 10 µM): > 10 µM | viability, T/C [1]: 96.2% | viability, T/C [2]: 105% | viability, T/C [3]: 96.8% | viability, T/C [4]: 80.6% | viability, T/C [5]: 77.2% | viability, T/C [6]: 58.9% | viability, T/C [7]: 98.4% | viability, T/C [8]: 106% | viability, T/C [9]: 109% | viability, T/C [10]: 94.9% | viability, T/C [11]: 68% | viability, T/C [12]: 47.6% | viability, T/C [13]: 107% | viability, T/C [14]: 109% | viability, T/C [15]: 105% | viability, T/C [16]: 86.2% | viability, T/C [17]: 75% | viability, T/C [18]: 48% | viability, T/C [19]: 99% | viability, T/C [20]: 101% | viability, T/C [21]: 96.6% | viability, T/C [22]: 106% | viability, T/C [23]: 75.3% | viability, T/C [24]: 61.3% | viability, T/C [25]: 96.3% | viability, T/C [26]: 103% | viability, T/C [27]: 115% | viability, T/C [28]: 89.7% | viability, T/C [29]: 75.8% | viability, T/C [30]: 58.4% | viability, T/C [31]: 99.8% | viability, T/C [32]: 99.6% | viability, T/C [33]: 97.1% | viability, T/C [34]: 97.4% | viability, T/C [35]: 72.7% | viability, T/C [36]: 59.4%
